These results are taken from US20120225062A1 (priority 2011, published 2012).

The experiment deals with KMS11 (human myeloma cell line). Put plainly: Cell Proliferation Assay (CellTiter-Glo, 3 days). The conditions noted are these: KMS-11, 72 h, KMS11-luc cells. It is filed as cell-based. The procedure:
KMS11 (human myeloma cell line), were cultured in IMDM supplemented with 10% FBS, sodium pyruvate and antibiotics. Cells were plated in the same medium at a density of 2000 cells per well into 96 well tissue culture plates, with outside wells vacant, on the day of assay.
Test compounds supplied in DMSO were diluted into DMSO at 500 times the desired final concentrations before dilution into culture media to 2 times final concentrations. Equal volumes of 2× compounds were added to the cells in 96 well plates and incubated at 37° C. for 3 days.
After 3 days plates were equilibrated to room temperature and equal volume of CellTiter-Glow Reagent (Promega) was added to the culture wells. The plates were agitated briefly and luminescent signal was measured with luminometer.
Using the procedures of Cell Proliferation Assay, the EC50 concentrations of compounds of the examples were determined in KMS11 cells as shown in Table 4.
Background: Cellular ATP, detected with luciferase, serves as a proxy for viable cell number.
In general, EC50 refers to the midpoint of the concentration-response curve. A high value points to lower potency in that assay. Consider `CCc1cc(F)c(-c2nc(C(=O)Nc3cnccc3[C@H]3C[C@@H](N)[C@H](O)[C@@H](C)C3)ccc2F)c(F)c1` [Example 39, N-(4-((1R,3R,4R,5S)-3-amino-4-hydroxy-5-methylcyclohexyl)pyridin-3-yl)-6-(4-ethyl-2,6-difluorophenyl)-5-fluoropicolinamide], for which a half-maximal response (EC50) required 0.055 µM.
With `C[C@H]1C[C@@H](c2ccncc2NC(=O)c2ccc(F)c(-c3c(F)cc(CCO)cc3F)n2)C[C@@H](N)[C@@H]1O` [Example 34, N-(4-((1R,3R,4R,5S)-3-amino-4-hydroxy-5-methylcyclohexyl)pyridin-3-yl)-6-(2,6-difluoro-4-(2-hydroxyethyl)phenyl)-5-fluoropicolinamide], the 50% effective concentration (EC50) is 0.029 µM.
Consider `C[C@H]1C[C@@H](c2ccncc2NC(=O)c2ccc(F)c(-c3c(F)cc(C4CC4)cc3F)n2)C[C@@H](N)[C@@H]1O` [Example 72, N-(4-((1R,3R,4R,5S)-3-amino-4-hydroxy-5-methylcyclohexyl)pyridin-3-yl)-6-(4-cyclopropyl-2,6-difluorophenyl)-5-fluoropicolinamide], for which the 50% effective concentration (EC50) came to 0.139 µM.
In the case of `C[C@H]1C[C@@H](c2ccncc2NC(=O)c2ccc(F)c(-c3c(F)cc(C4(O)CCC4)cc3F)n2)C[C@@H](N)[C@@H]1O` [Example 60, N-(4-((1R,3R,4R,5S)-3-amino-4-hydroxy-5-methylcyclohexyl)pyridin-3-yl)-6-(2,6-difluoro-4-(1-hydroxycyclobutyl)phenyl)-5-fluoropicolinamide] it was 0.015 µM; in that of `N[C@H]1CCC[C@@H](c2ccncc2NC(=O)c2ccc(F)c(-c3c(F)cc(C4(O)CCC4)cc3F)n2)C1` [Example 159, N-(4-((1R,3S)-3-aminocyclohexyl)pyridin-3-yl)-6-(2,6-difluoro-4-(1-hydroxycyclobutyl)phenyl)-5-fluoropicolinamide], 0.097 µM; in that of `C[C@@H]1C[C@H](N)C[C@H](c2ccncc2NC(=O)c2ccc(F)c(-c3c(F)cc(F)cc3F)n2)C1` [Example 209, N-(4-((1R,3S,5S)-3-amino-5-methylcyclohexyl)pyridin-3-yl)-5-fluoro-6-(2,4,6-trifluorophenyl)picolinamide], 0.262 µM.
`N[C@H]1CCC[C@@H](c2ccncc2NC(=O)c2ccc(F)c(-c3c(F)cc(C4(O)CCCC4)cc3F)n2)C1` [Example 162, N-(4-((1R,3S)-3-aminocyclohexyl)pyridin-3-yl)-6-(2,6-difluoro-4-(1-hydroxycyclopentyl)phenyl)-5-fluoropicolinamide] had an EC50 of 0.122 µM.
For the compound `C[C@H]1C[C@@H](c2ccncc2NC(=O)c2ccc(F)c(-c3c(F)cc(C4(C#N)CCOCC4)cc3F)n2)C[C@@H](N)[C@@H]1O` [Example 171, N-(4-((1R,3R,4R,5S)-3-amino-4-hydroxy-5-methylcyclohexyl)pyridin-3-yl)-6-(4-(4-cyanotetrahydro-2H-pyran-4-yl)-2,6-difluorophenyl)-5-fluoropicolinamide], it took 0.077 µM to reach a half-maximal effect (EC50).
In the case of `CSc1cc(F)c(-c2nc(C(=O)Nc3cnccc3[C@H]3C[C@@H](N)[C@H](O)[C@@H](C)C3)ccc2F)c(F)c1` [Example 36, N-(4-((1R,3R,4R,5S)-3-amino-4-hydroxy-5-methylcyclohexyl)pyridin-3-yl)-6-(2,6-difluoro-4-(methylthio)phenyl)-5-fluoropicolinamide] it was 0.107 µM.
Under `Cc1cc(F)c(-c2nc(C(=O)Nc3cnccc3[C@H]3C[C@@H](N)[C@H](O)[C@@H](C)C3)ccc2F)c(F)c1` [Example 4, N-(4-((1R,3R,4R,5S)-3-amino-4-hydroxy-5-methylcyclohexyl)pyridin-3-yl)-6-(2,6-difluoro-4-methylphenyl)-5-fluoropicolinamide] stands 0.07 µM.
Under `C[C@H]1C[C@@H](c2ccncc2NC(=O)c2ccc(F)c(-c3c(F)cc(C4(F)CCOCC4)cc3F)n2)C[C@@H](N)[C@@H]1O` [Example 127, N-(4-((1R,3R,4R,5S)-3-amino-4-hydroxy-5-methylcyclohexyl)pyridin-3-yl)-6-(2,6-difluoro-4-(4-fluorotetrahydro-2H-pyran-4-yl)phenyl)-5-fluoropicolinamide] stands 0.059 µM; under `CC(C)OCc1cc(F)c(-c2nc(C(=O)Nc3cnccc3[C@@H]3CCC[C@H](N)C3)ccc2F)c(F)c1` [Example 155, N-(4-((1R,3S)-3-aminocyclohexyl)pyridin-3-yl)-6-(2,6-difluoro-4-(isopropoxymethyl)phenyl)-5-fluoropicolinamide], 0.264 µM.
As to `C[C@H]1C[C@@H](c2ccncc2NC(=O)c2ccc(F)c(-c3c(F)cc(C4(O)CCCC4)cc3F)n2)C[C@@H](N)[C@@H]1O` [Example 161, N-(4-((1R,3R,4R,5S)-3-amino-4-hydroxy-5-methylcyclohexyl)pyridin-3-yl)-6-(2,6-difluoro-4-(1-hydroxycyclopentyl)phenyl)-5-fluoropicolinamide], the response was half-maximal at 0.034 µM (EC50).
Under `N[C@H]1CCC[C@@H](c2ccncc2NC(=O)c2ccc(F)c(-c3c(F)cc(C4CCOCC4)cc3F)n2)C1` [Example 156, N-(4-((1R,3S)-3-aminocyclohexyl)pyridin-3-yl)-6-(2,6-difluoro-4-(tetrahydro-2H-pyran-4-yl)phenyl)-5-fluoropicolinamide] stands 0.436 µM.
For `COCCOc1cc(F)c(-c2nc(C(=O)Nc3cnccc3[C@@H]3CCC[C@H](N)C3)ccc2F)c(F)c1` [Example 151, N-(4-((1R,3S)-3-aminocyclohexyl)pyridin-3-yl)-6-(2,6-difluoro-4-(2-methoxyethoxy)phenyl)-5-fluoropicolinamide], it took 0.34 µM to reach a half-maximal effect (EC50).
In the case of `CSc1cc(F)c(-c2nc(C(=O)Nc3cnccc3[C@@H]3C[C@H](C)C[C@H](N)C3)ccc2F)c(F)c1` [Example 223, N-(4-((1R,3S,5S)-3-amino-5-methylcyclohexyl)pyridin-3-yl)-6-(2,6-difluoro-4-(methylthio)phenyl)-5-fluoropicolinamide] it was 0.169 µM; in that of `C[C@@H]1C[C@H](N)C[C@H](c2ccncc2NC(=O)c2ccc(F)c(-c3c(F)cc(CO)cc3F)n2)C1` [Example 224, N-(4-((1R,3S,5S)-3-amino-5-methylcyclohexyl)pyridin-3-yl)-6-(2,6-difluoro-4-(hydroxymethyl)phenyl)-5-fluoropicolinamide], 0.064 µM.
In the case of `Cc1cc(F)c(-c2nc(C(=O)Nc3cnccc3[C@H]3C[C@@H](N)[C@@H](O)[C@@H](C)C3)ccc2F)c(F)c1` [Example 6, N-(4-((1R,3R,4S,5S)-3-amino-4-hydroxy-5-methylcyclohexyl)pyridin-3-yl)-6-(2,6-difluoro-4-methylphenyl)-5-fluoropicolinamide] it was 0.041 µM; in that of `C[C@H]1C[C@@H](c2ccncc2NC(=O)c2ccc(F)c(-c3c(F)cc(C(C)(C)O)cc3F)n2)C[C@@H](N)[C@@H]1O` [Example 66, N-(4-((1R,3R,4R,5S)-3-amino-4-hydroxy-5-methylcyclohexyl)pyridin-3-yl)-6-(2,6-difluoro-4-(2-hydroxypropan-2-yl)phenyl)-5-fluoropicolinamide], 0.011 µM; in that of `CSc1cc(F)c(-c2nc(C(=O)Nc3cnccc3[C@H]3C[C@@H](N)[C@@H](O)[C@@H](C)C3)ccc2F)c(F)c1` [Example 19, N-(4-((1R,3R,4S,5S)-3-amino-4-hydroxy-5-methylcyclohexyl)pyridin-3-yl)-6-(2,6-difluoro-4-(methylthio)phenyl)-5-fluoropicolinamide], 0.074 µM.
For the compound `C[C@H]1C[C@@H](c2ccncc2NC(=O)c2ccc(F)c(-c3c(F)cc([S@+](C)[O-])cc3F)n2)C[C@@H](N)[C@@H]1O` [Example 27, N-(4-((1R,3R,4R,5S)-3-amino-4-hydroxy-5-methylcyclohexyl)pyridin-3-yl)-6-(2,6-difluoro-4-((S)-methylsulfinyl)phenyl)-5-fluoropicolinamide], the response was half-maximal at 0.09 µM (EC50).
Under `N[C@H]1CCC[C@@H](c2ccncc2NC(=O)c2ccc(F)c(-c3c(F)cc(N4CCOCC4)cc3F)n2)C1` [Example 166, N-(4-((1R,3S)-3-aminocyclohexyl)pyridin-3-yl)-6-(2,6-difluoro-4-morpholinophenyl)-5-fluoropicolinamide] stands 0.325 µM; under `C[C@H]1C[C@@H](c2ccncc2NC(=O)c2ccc(F)c(-c3c(F)cc(C4(O)COC4)cc3F)n2)C[C@@H](N)[C@@H]1O` [Example 54, N-(4-((1R,3R,4R,5S)-3-amino-4-hydroxy-5-methylcyclohexyl)pyridin-3-yl)-6-(2,6-difluoro-4-(3-hydroxyoxetan-3-yl)phenyl)-5-fluoropicolinamide], 0.095 µM.
In turn, `CCC(=O)c1cc(F)c(-c2nc(C(=O)Nc3cnccc3[C@H]3C[C@@H](N)[C@H](O)[C@@H](C)C3)ccc2F)c(F)c1` [Example 157, N-(4-((1R,3R,4R,5S)-3-amino-4-hydroxy-5-methylcyclohexyl)pyridin-3-yl)-6-(2,6-difluoro-4-propionylphenyl)-5-fluoropicolinamide] yielded a 50% effective concentration (EC50) of 0.068 µM.
As to `C[C@H]1C[C@@H](c2ccncc2NC(=O)c2ccc(F)c(-c3c(F)cc(C4COC4)cc3F)n2)C[C@@H](N)[C@@H]1O` [Example 56, N-(4-((1R,3R,4R,5S)-3-amino-4-hydroxy-5-methylcyclohexyl)pyridin-3-yl)-6-(2,6-difluoro-4-(oxetan-3-yl)phenyl)-5-fluoropicolinamide], the EC50 was 0.031 µM.
Under `C[C@H]1C[C@@H](c2ccncc2NC(=O)c2ccc(F)c(-c3c(F)cc([S@@+](C)[O-])cc3F)n2)C[C@@H](N)[C@@H]1O` [Example 28] stands 3.88 µM; under `C[C@@H]1C[C@H](N)C[C@H](c2ccncc2NC(=O)c2ccc(F)c(-c3c(F)cc(Cl)cc3F)n2)C1` [Example 208, N-(4-((1R,3S,5S)-3-amino-5-methylcyclohexyl)pyridin-3-yl)-6-(4-chloro-2,6-difluorophenyl)-5-fluoropicolinamide], 0.363 µM.
